In ChEMBL document CHEMBL5303765, “Data for DCP probe BAY-7081” (2023):

Key:
Settings in all cases: for ΔTm: Compound concentration 10.0 uM
[1] = target: T1, Serine/threonine-protein kinase 17A (Homo sapiens) (UniProt Q9UEE5); assay: STK17A SGC Tm panel (DSF)
T1 sequence (whole entry): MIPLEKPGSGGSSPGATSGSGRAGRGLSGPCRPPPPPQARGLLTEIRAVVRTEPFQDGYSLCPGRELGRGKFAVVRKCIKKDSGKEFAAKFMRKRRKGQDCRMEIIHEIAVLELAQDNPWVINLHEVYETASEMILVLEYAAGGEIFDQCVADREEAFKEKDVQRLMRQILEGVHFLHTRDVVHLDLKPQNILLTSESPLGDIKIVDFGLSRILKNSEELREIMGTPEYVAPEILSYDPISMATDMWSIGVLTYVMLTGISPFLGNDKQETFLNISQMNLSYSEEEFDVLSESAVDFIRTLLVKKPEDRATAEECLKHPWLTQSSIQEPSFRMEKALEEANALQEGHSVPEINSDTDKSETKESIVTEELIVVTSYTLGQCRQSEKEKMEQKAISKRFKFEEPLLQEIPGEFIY

[2] = target: T2, Peregrin (Homo sapiens) (UniProt P55201); assay: BRPF1 SGC Tm panel (DSF)
T2 sequence (whole entry): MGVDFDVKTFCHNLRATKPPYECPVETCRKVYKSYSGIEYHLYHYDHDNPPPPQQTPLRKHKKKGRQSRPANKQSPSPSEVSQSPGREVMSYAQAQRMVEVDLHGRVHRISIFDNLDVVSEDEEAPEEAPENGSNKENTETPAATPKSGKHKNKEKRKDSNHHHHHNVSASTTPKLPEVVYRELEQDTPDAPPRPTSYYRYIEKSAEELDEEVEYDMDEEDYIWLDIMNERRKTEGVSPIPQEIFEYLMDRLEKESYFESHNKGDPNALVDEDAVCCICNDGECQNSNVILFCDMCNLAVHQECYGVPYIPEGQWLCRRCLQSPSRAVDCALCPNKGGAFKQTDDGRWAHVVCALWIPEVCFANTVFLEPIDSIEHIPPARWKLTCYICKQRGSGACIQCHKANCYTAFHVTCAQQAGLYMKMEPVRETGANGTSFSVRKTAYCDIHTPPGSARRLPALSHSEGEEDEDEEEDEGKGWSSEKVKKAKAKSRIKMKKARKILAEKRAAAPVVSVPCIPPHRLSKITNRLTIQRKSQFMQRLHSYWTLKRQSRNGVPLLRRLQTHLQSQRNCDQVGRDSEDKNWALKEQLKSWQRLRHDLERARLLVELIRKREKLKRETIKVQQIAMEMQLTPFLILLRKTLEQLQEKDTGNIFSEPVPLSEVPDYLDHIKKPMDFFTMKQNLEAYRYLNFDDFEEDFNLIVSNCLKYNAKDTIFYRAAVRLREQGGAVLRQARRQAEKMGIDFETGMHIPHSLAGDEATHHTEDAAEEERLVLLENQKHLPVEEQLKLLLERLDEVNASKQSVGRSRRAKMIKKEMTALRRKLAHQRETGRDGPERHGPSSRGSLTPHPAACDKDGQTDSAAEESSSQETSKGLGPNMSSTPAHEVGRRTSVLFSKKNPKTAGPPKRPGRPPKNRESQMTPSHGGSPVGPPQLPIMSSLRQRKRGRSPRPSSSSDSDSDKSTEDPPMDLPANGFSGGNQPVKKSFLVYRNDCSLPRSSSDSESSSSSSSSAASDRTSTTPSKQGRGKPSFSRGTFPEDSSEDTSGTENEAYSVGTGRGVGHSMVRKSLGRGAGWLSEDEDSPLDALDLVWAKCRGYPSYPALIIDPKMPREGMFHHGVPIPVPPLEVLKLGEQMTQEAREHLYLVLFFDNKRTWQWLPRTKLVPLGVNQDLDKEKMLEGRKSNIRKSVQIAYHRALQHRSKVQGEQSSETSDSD

[3] = target: T3, Serine/threonine-protein kinase 4 (Homo sapiens) (UniProt Q13043); assay: STK4 SGC Tm panel (DSF)
T3 sequence (whole entry): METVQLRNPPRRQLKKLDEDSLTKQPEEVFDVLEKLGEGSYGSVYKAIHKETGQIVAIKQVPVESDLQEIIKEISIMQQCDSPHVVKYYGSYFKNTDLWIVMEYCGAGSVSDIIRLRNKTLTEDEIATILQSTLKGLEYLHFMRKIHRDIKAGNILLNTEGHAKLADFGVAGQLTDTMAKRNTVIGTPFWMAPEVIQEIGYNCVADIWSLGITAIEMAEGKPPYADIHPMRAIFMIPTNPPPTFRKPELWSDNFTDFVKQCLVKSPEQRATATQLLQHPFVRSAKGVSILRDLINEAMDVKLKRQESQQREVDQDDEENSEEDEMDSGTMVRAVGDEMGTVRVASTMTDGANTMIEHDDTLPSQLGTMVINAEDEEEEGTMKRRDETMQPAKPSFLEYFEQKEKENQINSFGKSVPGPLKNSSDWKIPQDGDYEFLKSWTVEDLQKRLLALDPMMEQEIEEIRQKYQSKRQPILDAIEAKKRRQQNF

[4] = target: Serine/threonine-protein kinase pim-1 (Homo sapiens) (UniProt P11309); assay: PIM1 SGC Tm panel (DSF)
Sequence of Serine/threonine-protein kinase pim-1 (Homo sapiens) (P11309 whole entry, looked up): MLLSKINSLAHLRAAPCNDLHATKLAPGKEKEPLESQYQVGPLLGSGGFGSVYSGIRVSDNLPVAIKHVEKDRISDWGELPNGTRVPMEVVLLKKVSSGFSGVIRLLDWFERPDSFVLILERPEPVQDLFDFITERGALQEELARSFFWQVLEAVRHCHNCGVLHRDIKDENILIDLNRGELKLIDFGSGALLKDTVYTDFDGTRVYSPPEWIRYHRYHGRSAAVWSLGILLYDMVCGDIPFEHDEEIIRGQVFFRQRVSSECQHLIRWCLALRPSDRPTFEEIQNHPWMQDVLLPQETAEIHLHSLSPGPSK

SMILES | delta Tm Staurosporine positive control [1] | ΔTm [1] | delta Tm Staurosporine positive control [2] | ΔTm [2] | delta Tm Staurosporine positive control [3] | ΔTm [3] | delta Tm Staurosporine positive control [4] | ΔTm [4]
CCC[C@H]1CNCc2c1[nH]c(=O)c(C#N)c2N1CCC2(CC1)CC2 | 11.8 | -1.05 | -0.107 | -0.754 | 16.2 | -0.568 | 12.2 | -0.108
CCC[C@@H]1CNCc2c1[nH]c(=O)c(C#N)c2N1CCC2(CC1)CC2 | 11.8 | -1.01 | -0.107 | -0.426 | 16.2 | -0.519 | 12.2 | -0.124
